The source of these data is paper PMC8233901, “D-Amino Acid-Containing Lipopeptides Derived from the Lead Peptide BP100 with Activity against Plant Pathogens” (International Journal of Molecular Sciences, 2021).

Data set [1] has as its system horse erythrocytes. Briefly: Hemolytic activity (hemoglobin release from erythrocytes). Type of data set: cell-based. To be noted: 37 °C, relative to melittin, ± confidence interval (α = 0.05). On the procedure:
The hemolytic activity of the compounds was evaluated by determining hemoglobin release from erythrocyte suspensions of horse blood (5% vol/vol) (Oxoid) as previously described. Blood was centrifuged at 6000 g for 5 min, washed three times with tris(hydroxymethyl)aminomethane (TRIS) buffer (10 mM TRIS, 150 mM NaCl, pH 7.2) and diluted 10 times. Compounds were solubilized in TRIS buffer at 750, 500, 300 and 100 μM and mixed with horse erythrocytes (1:1 v/v). The mixture was incubated under continuous shaking for 1 h at 37 °C. Then, the tubes were centrifuged at 3500 g for 10 min, 80 μL aliquots of the supernatant transferred to 100-well microplates (Bioscreen), diluted with 80 μL water, and the absorbance measured at 540 nm (Bioscreen). Complete hemolysis was obtained by the addition of melittin at 100 μM (Sigma-Aldrich Corporation, Madrid, Spain). The percentage of hemolysis (H) was calculated using the equation: H = 100 × [(Op−Ob)/(Om−Ob)], where Op is the density for a given compound concentration, Ob for the buffer, and Om for the melittin-positive control.

For data set [2], the system named is tobacco leaves. Put plainly: Effect of peptide infiltration on tobacco leaves (lesion size). Type of data set: in vivo. The conditions noted are these: ± confidence interval; for Size of the lesion (mm) 50 µM: 100 µL infiltrated into mesophyll of tobacco leaves. On the procedure:
The lipopeptides were evaluated for their effect upon infiltration on tobacco leaves as described previously. Peptide solutions of 50, 150 and 250 μM were infiltrated (100 μL) into the mesophylls of fully expanded tobacco leaves. Infiltrations were carried out in a single leaf, and for each peptide and dose, at least three leaves randomly distributed in different plants were infiltrated. Control infiltrations with water (negative control) or melittin (positive control) at the same molar concentration were performed. The appearance of symptoms on the leaves was followed for 48 h after infiltration and measured as a lesion diameter.

The subject of data set [3] is tobacco leaves. The arrangement: method as in earlier work. To be noted: all-L parent lipopeptides, ± confidence interval, cited from earlier work.
The subject of data set [4] is horse erythrocytes. The arrangement: method as in earlier work. The conditions noted are these: all-L parent lipopeptides, ± confidence interval (α = 0.05), cited from earlier work.
[5] abbreviates: D-amino acid lipopeptides, 250 µM, TRIS buffer pH 7.2, 1 h.
[6] abbreviates: D-amino acid lipopeptides, TRIS buffer pH 7.2, 1 h.
Setting [7] is: D-amino acid lipopeptides, lesion diameter, 48 h, at least three leaves.
Setting [8] is: D-amino acid lipopeptides, 100 µL infiltrated into tobacco leaves, lesion diameter, 48 h, at least three leaves.
Setting [9] is: D-amino acid lipopeptides, 250 µM, 100 µL infiltrated into tobacco leaves, lesion diameter, 48 h, at least three leaves.
Where [10] appears, read: Table 2, 250 µM infiltrated into tobacco leaves.

Like-named read-outs stand apart in the source and are kept apart here. Where a SMILES comes first, the peptide text is derived from it. [ ]: non-standard residue; d: D form. The star is where a group is joined. Lauroyl = CCCCCCCCCCCC(=O)*; Hexanoyl = CCCCCC(=O)*; Butyryl = CCCC(=O)*

For `CCCCCCCCCCCC(=O)NCCCC[C@H](NC(=O)[C@H](CC(C)C)NC(=O)[C@@H](NC(=O)[C@H](CCCCN)NC(=O)[C@H](CCCCN)NC(=O)[C@@H](Cc1ccccc1)NC(=O)[C@H](CC(C)C)NC(=O)[C@H](CCCCN)NC(=O)[C@H](CCCCN)NC(C)=O)[C@@H](C)CC)C(=O)N[C@@H](Cc1ccc(O)cc1)C(=O)N[C@@H](CC(C)C)C(N)=O` [BP497, Ac-KKLfKKILK(COC11H23)YL-NH2], the “Hemolysis (%) 150 µM” value in data set [1] (D-amino acid lipopeptides, 150 µM, TRIS buffer pH 7.2, 1 h) turned out to be 100 ± 2%. Besides, in data set [1] (setting [5]), the “Hemolysis (%) 250 µM” value is reported as 100 ± 2%. Also, the “Hemolysis (%) 375 µM” value in data set [1] (setting [6]) amounted to 100 ± 4%. Besides, the “Size of the lesion (mm) 50 µM” value in data set [2] (setting [7]) is listed as 5 ± 1 mm. Further, in data set [2] (setting [8]), the “Size of the lesion (mm) 150 µM” value is on record as 18 ± 1 mm. Also, the “Size of the lesion (mm) 250 µM” value in data set [2] (setting [9]) and in data set [2] (setting [10]) was 18 ± 0 mm in each case.
Turning to `CCCCCC(=O)N[C@@H](CCCCN)C(=O)N[C@@H](CCCCN)C(=O)N[C@@H](CC(C)C)C(=O)N[C@H](Cc1ccccc1)C(=O)N[C@@H](CCCCN)C(=O)N[C@@H](CCCCN)C(=O)N[C@H](C(=O)N[C@@H](CC(C)C)C(=O)N[C@@H](CCCCN)C(=O)N[C@@H](Cc1ccc(O)cc1)C(=O)N[C@@H](CC(C)C)C(N)=O)[C@@H](C)CC` [BP472, C5H11CO-KKLfKKILKYL-NH2], the “Hemolysis (%) 250 µM” value in data set [1] (setting [5]) is reported as 78 ± 5%. Moreover, the “Size of the lesion (mm) 50 µM” value in data set [2] (setting [7]) is 2 ± 1 mm. Further, in data set [2] (setting [8]), the “Size of the lesion (mm) 150 µM” value came to 4 ± 1 mm. Further, the “Size of the lesion (mm) 250 µM” value in data set [2] (setting [9]) and in data set [2] (setting [10]) was 4 ± 1 mm throughout.
With `CCCCCC(=O)NCCCC[C@@H](NC(=O)[C@H](CC(C)C)NC(=O)[C@H](CCCCN)NC(=O)[C@H](CCCCN)NC(C)=O)C(=O)N[C@@H](CCCCN)C(=O)N[C@@H](CCCCN)C(=O)N[C@H](C(=O)N[C@@H](CC(C)C)C(=O)N[C@@H](CCCCN)C(=O)N[C@@H](Cc1ccc(O)cc1)C(=O)N[C@@H](CC(C)C)C(N)=O)[C@@H](C)CC` [BP484, Ac-KKLk(COC5H11)KKILKYL-NH2], the “Hemolysis (%) 250 µM” value in data set [1] (setting [5]) is recorded as 10 ± 2%. Besides, in data set [2] (setting [7]), the “Size of the lesion (mm) 50 µM” value is recorded as 0 ± 0 mm. Moreover, the “Size of the lesion (mm) 150 µM” value in data set [2] (setting [8]) is reported as 2 ± 2 mm. The “Size of the lesion (mm) 250 µM” value in data set [2] (setting [9]) and in data set [2] (setting [10]) was 7 ± 1 mm in each case.
For `CCCC(=O)NCCCC[C@H](NC(=O)[C@H](CCCCN)NC(C)=O)C(=O)N[C@@H](CC(C)C)C(=O)N[C@H](Cc1ccccc1)C(=O)N[C@@H](CCCCN)C(=O)N[C@@H](CCCCN)C(=O)N[C@H](C(=O)N[C@@H](CC(C)C)C(=O)N[C@@H](CCCCN)C(=O)N[C@@H](Cc1ccc(O)cc1)C(=O)N[C@@H](CC(C)C)C(N)=O)[C@@H](C)CC` [BP486, Ac-KK(COC3H7)LfKKILKYL-NH2], the “Hemolysis (%) 250 µM” value in data set [1] (setting [5]) is listed as 14 ± 5%. In data set [1] (setting [6]), the “Hemolysis (%) 375 µM” value was 14 ± 2%. For the same molecule, the “Size of the lesion (mm) 50 µM” value in data set [2] (setting [7]) is given as 4 ± 1 mm. The “Size of the lesion (mm) 150 µM” value in data set [2] (setting [8]) worked out at 8 ± 1 mm. Besides, the “Size of the lesion (mm) 250 µM” value in data set [2] (setting [9]) and in data set [2] (setting [10]) was 17 ± 2 mm in each case.
As to `CCCCCCCCCCCC(=O)NCCCC[C@H](NC(=O)[C@H](Cc1ccc(O)cc1)NC(=O)[C@H](CCCCN)NC(=O)[C@H](CC(C)C)NC(=O)[C@@H](NC(=O)[C@H](CCCCN)NC(=O)[C@H](CCCCN)NC(=O)[C@@H](Cc1ccccc1)NC(=O)[C@H](CC(C)C)NC(=O)[C@H](CCCCN)NC(=O)[C@H](CCCCN)NC(C)=O)[C@@H](C)CC)C(N)=O` [BP476, Ac-KKLfKKILKYK(COC11H23)-NH2] (Ac-KKL[dF]KKILKYK(Lauroyl)-NH2), the “Hemolysis (%) 250 µM” value in data set [1] (setting [5]) is reported as 94 ± 10%. Besides, in data set [1] (setting [6]), the “Hemolysis (%) 375 µM” value is on record as 94 ± 67%. In addition, the “Size of the lesion (mm) 50 µM” value in data set [2] (setting [7]) came out at 3 ± 0.6 mm. Moreover, in data set [2] (setting [8]), the “Size of the lesion (mm) 150 µM” value stood at 3 ± 0.5 mm. The “Size of the lesion (mm) 250 µM” value in data set [2] (setting [9]) and in data set [2] (setting [10]) was 5 ± 0.5 mm in each case.
Consider “Ac-KKLFKKILKK(COC3H7)L-NH2 [BP389, analog of BP475 with all L-amino acids]”, for which, in data set [3] (50 µM), the “Size of the lesion (mm) 50 µM” value is listed as 4 ± 1 mm. Besides, the “Size of the lesion (mm) 150 µM” value in data set [3] (150 µM) is recorded as 7 ± 1 mm. Further, the “Size of the lesion (mm) 250 µM” value in data set [3] (250 µM) was 9 ± 3 mm. Further, the “Hemolysis (%) 50 µM” value in data set [4] (50 µM) was 9 ± 4%. The “Hemolysis (%) 250 µM” value in data set [4] (250 µM) is 22 ± 2%. Besides, the “Hemolysis (%) 375 µM” value in data set [4] (375 µM) is listed as 39 ± 3%.
With `CCCCCC(=O)NCCCC[C@H](NC(=O)[C@H](CCCCN)NC(=O)[C@H](CCCCN)NC(=O)[C@@H](Cc1ccccc1)NC(=O)[C@H](CC(C)C)NC(=O)[C@H](CCCCN)NC(=O)[C@H](CCCCN)NC(C)=O)C(=O)N[C@@H](CC(C)C)C(=O)N[C@@H](CCCCN)C(=O)N[C@@H](Cc1ccc(O)cc1)C(=O)N[C@@H](CC(C)C)C(N)=O` [BP494, Ac-KKLfKKK(COC5H11)LKYL-NH2] (Ac-KKL[dF]KKK(Hexanoyl)LKYL-NH2), the “Hemolysis (%) 250 µM” value in data set [1] (Table 2, 250 µM, 1 h) is 0.2 ± 0.2%. In data set [2] (setting [7]), the “Size of the lesion (mm) 50 µM” value is recorded as 1 ± 1 mm. The “Size of the lesion (mm) 150 µM” value in data set [2] (setting [8]) is 6 ± 1 mm. Moreover, the “Size of the lesion (mm) 250 µM” value in data set [2] (setting [9]) and in data set [2] (setting [10]) was 8 ± 1 mm throughout.
Regarding `CCCCCC(=O)NCCCC[C@H](NC(=O)[C@H](Cc1ccc(O)cc1)NC(=O)[C@H](CCCCN)NC(=O)[C@H](CC(C)C)NC(=O)[C@@H](NC(=O)[C@H](CCCCN)NC(=O)[C@H](CCCCN)NC(=O)[C@@H](Cc1ccccc1)NC(=O)[C@H](CC(C)C)NC(=O)[C@H](CCCCN)NC(=O)[C@H](CCCCN)NC(C)=O)[C@@H](C)CC)C(N)=O` [BP495, Ac-KKLfKKILKYK(COC5H11)-NH2] (Ac-KKL[dF]KKILKYK(Hexanoyl)-NH2), in data set [1] (Table 2, 250 µM, 1 h), the “Hemolysis (%) 250 µM” value is listed as 0.6 ± 1%. For the same molecule, the “Size of the lesion (mm) 50 µM” value in data set [2] (setting [7]) was 3 ± 0 mm. Further, the “Size of the lesion (mm) 150 µM” value in data set [2] (setting [8]) was determined as 6 ± 2 mm. The “Size of the lesion (mm) 250 µM” value in data set [2] (setting [9]) and in data set [2] (setting [10]) was 11 ± 2 mm each time.
For the molecule `CCCCCCCCCCCC(=O)NCCCC[C@@H](NC(=O)[C@H](CC(C)C)NC(=O)[C@H](CCCCN)NC(=O)[C@H](CCCCN)NC(C)=O)C(=O)N[C@@H](CCCCN)C(=O)N[C@@H](CCCCN)C(=O)N[C@H](C(=O)N[C@@H](CC(C)C)C(=O)N[C@@H](CCCCN)C(=O)N[C@@H](Cc1ccc(O)cc1)C(=O)N[C@@H](CC(C)C)C(N)=O)[C@@H](C)CC` [BP488, Ac-KKLk(COC11H23)KKILKYL-NH2], the “Hemolysis (%) 250 µM” value in data set [1] (setting [5]) amounted to 86 ± 14%. Further, the “Size of the lesion (mm) 50 µM” value in data set [2] (setting [7]) turned out to be 4 ± 0.7 mm. Also, the “Size of the lesion (mm) 150 µM” value in data set [2] (setting [8]) turned out to be 5 ± 1 mm. Also, the “Size of the lesion (mm) 250 µM” value in data set [2] (setting [9]) and in data set [2] (setting [10]) was 13 ± 5 mm in each case.
In the case of `CCCC(=O)NCCCC[C@H](NC(=O)[C@H](Cc1ccc(O)cc1)NC(=O)[C@H](CCCCN)NC(=O)[C@H](CC(C)C)NC(=O)[C@@H](NC(=O)[C@H](CCCCN)NC(=O)[C@H](CCCCN)NC(=O)[C@@H](Cc1ccccc1)NC(=O)[C@H](CC(C)C)NC(=O)[C@H](CCCCN)NC(=O)[C@H](CCCCN)NC(C)=O)[C@@H](C)CC)C(N)=O` [BP496, Ac-KKLfKKILKYK(COC3H7)-NH2] (Ac-KKL[dF]KKILKYK(Butyryl)-NH2), the “Hemolysis (%) 250 µM” value in data set [1] (setting [5]) is listed as 1 ± 1%. For the same molecule, in data set [1] (setting [6]), the “Hemolysis (%) 375 µM” value is reported as 1 ± 0.5%. Also, the “Size of the lesion (mm) 50 µM” value in data set [2] (setting [7]) is 3 ± 0.5 mm. For the same molecule, in data set [2] (setting [8]), the “Size of the lesion (mm) 150 µM” value is given as 4 ± 0.5 mm. Further, the “Size of the lesion (mm) 250 µM” value in data set [2] (setting [9]) and in data set [2] (setting [10]) was 10 ± 3 mm in each case.
